The test system of one experiment is T. rubrum. The experiment can be described thus: Full skin model infected with spores, treatment, histology (PAS-staining). The following applies: for spread of T. rubrum: up to 72 h after application, ciclopiroxolamin 400 µg/mL, terbinafin 0.050 µg/mL, histology vs infected untreated control; for outgrowth of the spores of T. rubrum: sertaconazol 0.025 µg/mL, Fig. 5. The format is cell-based, Trichophyton rubrum. An excerpt: (§1) For an application in vivo, there is the additional requirement for the antimycotic substances to evoke a targeted antimycotic activity in the presence of human cells. Thus, 3D-cell-cultures such as full skin models are used to simulate the in vivo conditions. Such full skin models are for example described in Reddersen K, Wiegand C, Elsner P, Hipler UC. Three-dimensional human skin model infected with Staphylococcus aureus as a tool for evaluation of bioactivity and biocompatibility of antiseptics. Int J Antimicrob Agents. 2019; 54(3):283-291; Wiegand C, Fink S, Beier O, Horn K, Pfuch A, Schimanski A, Grünler B, Hipler UC, Elsner P. Dose- and Time-Dependent Cellular Effects of Cold Atmospheric Pressure Plasma Evaluated in 3D Skin Models. Skin Pharmacol Physiol. 2016;29(5):257-265. Particularly, such full skin models are made of a collagen matrix, which is colonized with primary human fibroblasts, and a fully differentiated epidermis made of primary human keratinocytes. For the experiments, the model is infected in vitro with spores, such that a determination of the sporistatic or sporicidal influence of the substances to be examined at in vivo relevant conditions is allowed. Compared to a 2D-model, the 3D full skin model has the advantage that the cells are in their natural three-dimensional surrounding and show a corresponding behaviour. Such, the antimycotic and sporistatic or sporicidal effects can be examined in situ and in the presence of human cells.
The spore suspensions and the solutions of sertaconazol, ciclopiroxolamin and terbinafin were prepared as in Example 1, wherein the respective test concentrations were obtained by diluting these solutions in ultrapure water (WFI; Fresenius Kabi) instead of SGB (Merck). Full skin models were produced as previously described [Reddersen K, Wiegand C, Elsner P, Hipler UC. Three-dimensional human skin model infected with Staphylococcus aureus as a tool for evaluation of bioactivity and biocompatibility of antiseptics. Int J Antimicrob Agents. 2019; 54(3):283-291; Wiegand C, Fink S, Beier O, Horn K, Pfuch A, Schimanski A, Grünler B, Hipler UC, Elsner P. Dose- and Time-Dependent Cellular Effects of Cold Atmospheric Pressure Plasma Evaluated in 3D Skin Models. Skin Pharmacol Physiol. 2016;29(5):257-265].Particularly, normal human dermal fibroblasts (NHDF; Lot 1060702.1, Promocell) and normal human epidermal keratinocytes (NHEK; Lot 9100102, Promocell) were used. Fibroblasts were cultivated in Dulbecco's modified eagle medium (DMEM; Lot MC09049P, Amimed), with 2% foetal calf serum (Lot P160509; PAN), 5 ng/mL hFGF (Lot 0329586; novoprotein) and 5 µg/ml Insulin (Lot H07443P, AMIMED) at 37°C and a 5% CO2 atmosphere. […]

For another experiment, the system named is E. floccosum. Briefly: Full skin model infected with spores, treatment, histology. It is filed as cell-based, Epidermophyton floccosum. The following applies: 48 h and 72 h, sertaconazol 0.010, ciclopiroxolamin 400, terbinafin 0.200 µg/mL.
Description: as §1
(§2) The spore suspensions and the solutions of sertaconazol, ciclopiroxolamin and terbinafin were prepared as in Example 1, wherein the respective test concentrations were obtained by diluting these solutions in ultrapure water (WFI; Fresenius Kabi) instead of SGB (Merck). Full skin models were produced as previously described [Reddersen K, Wiegand C, Elsner P, Hipler UC. […] 2019; 54(3):283-291; Wiegand C, Fink S, Beier O, Horn K, Pfuch A, Schimanski A, Grünler B, Hipler UC, Elsner P. Dose- and Time-Dependent Cellular Effects of Cold Atmospheric Pressure Plasma Evaluated in 3D Skin Models. […]

The test system of the next experiment is S. brevicaulis. The experiment can be described thus: Full skin model infected with spores, treatment, histology (PAS-staining). The format is cell-based, Scopulariopsis brevicaulis. The settings on record: 48 h and 72 h, sertaconazol 100, ciclopiroxolamin 400, terbinafin 100 µg/mL, Fig. 6, stated as 'the same applies' as for E. floccosum.
Description: as §1, §2

For a further experiment, the system named is C. albicans. Described as above. It is filed as cell-based, Candida albicans. The settings on record: over 72 h, sertaconazol 800, ciclopiroxolamin 400, terbinafin 1600 µg/mL, Fig. 7.
Description: as §1, §2

The results in this text go back to EP4129284B1, “SERTACONAZOL FOR PROVIDING A SPORISTATIC AND/OR SPORICIDAL EFFECT” (Dr. Pfleger Arzneimittel GmbH, priority 2021, dated 2023).

For `Cc1cc(C2CCCCC2)n(O)c(=O)c1` [Ciclopiroxolamin, ciclopiroxolamin], the “spread of T. rubrum” value in the experiment with T. rubrum is given as “reduce the spread of T. rubrum but could not inhibit it”. The “outgrowth of E. floccosum” value in the experiment on E. floccosum is listed as “only reduced”. Further, the “outgrowth of S. brevicaulis” value in the experiment on S. brevicaulis is recorded as “only reduced”. The “outgrowth of C. albicans” value in the experiment with C. albicans is given as “much lower effect”.

`Clc1ccc(C(Cn2ccnc2)OCc2csc3c(Cl)cccc23)c(Cl)c1` (stereo not shown) [Sertaconazol, sertaconazol]: the “outgrowth of the spores of T. rubrum” value was “inhibit the outgrowth” in the experiment on T. rubrum (48 h treatment) and “reduce the outgrowth” in the experiment with T. rubrum (72 h treatment). Moreover, the “outgrowth of E. floccosum” value with E. floccosum was “inhibited”. Further, in the experiment with S. brevicaulis, the “outgrowth of S. brevicaulis” value is listed as “inhibited”. In addition, in the experiment on C. albicans, the “outgrowth of C. albicans” value is given as “clearly reduced”.

Consider `CN(C/C=C/C#CC(C)(C)C)Cc1cccc2ccccc12` [Terbinafin, terbinafin], for which, in the experiment on T. rubrum, the “spread of T. rubrum” value is reported as “did not have any effect”. Also, the “outgrowth of E. floccosum” value with E. floccosum was “only reduced”. In addition, the “outgrowth of S. brevicaulis” value in the experiment on S. brevicaulis was “only reduced”. Further, in the experiment on C. albicans, the “outgrowth of C. albicans” value is “much lower effect”.
